# Results taken from patent publication US9006464B2, “Substituted cyclopentanes having prostaglandin activity” (Allergan, Inc., priority 2007, dated 2015).
# Key:
# [1] = molecular target: T1, EP2 (Homo sapiens, UniProt P43116); assay: EP2 cAMP assay; type: cell-based
# Description: (§1) U.S. patent application Ser. No. 11/553,143, filed on Oct. 26, 2006, incorporated by reference herein, describes the methods used to obtain the in vitro data in Table 1 below.
# [2] = molecular target: T1, EP2; assay: EP2 binding (Ki)
# Description: as §1
# [3] = molecular target: T1, EP2; assay: EP2 Ca2+ signal assay; type: cell-based
# Description: as §1
# [4] = molecular target: T2, EP4 (Homo sapiens, UniProt P35408); assay: EP4 Ca2+ signal assay; type: cell-based
# T2 sequence (P35408 whole entry): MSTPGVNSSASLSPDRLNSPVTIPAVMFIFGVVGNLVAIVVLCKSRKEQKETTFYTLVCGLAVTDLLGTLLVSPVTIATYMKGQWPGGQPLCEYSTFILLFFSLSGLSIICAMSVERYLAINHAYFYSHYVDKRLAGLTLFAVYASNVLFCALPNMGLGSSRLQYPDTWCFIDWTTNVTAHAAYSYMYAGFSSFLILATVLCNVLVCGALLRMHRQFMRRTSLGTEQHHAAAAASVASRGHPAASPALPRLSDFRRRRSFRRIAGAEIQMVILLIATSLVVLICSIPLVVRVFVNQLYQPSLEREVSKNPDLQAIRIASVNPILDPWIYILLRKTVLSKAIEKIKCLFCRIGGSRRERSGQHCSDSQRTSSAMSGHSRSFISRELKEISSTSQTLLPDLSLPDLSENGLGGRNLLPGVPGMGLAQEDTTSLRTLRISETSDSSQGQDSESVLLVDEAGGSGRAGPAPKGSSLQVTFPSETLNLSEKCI
# Description: as §1
# [5] = molecular target: T2, EP4; assay: EP4 binding (Ki)
# Description: as §1
# [6] = molecular target: T3, DP (Homo sapiens, UniProt Q13258); assay: Other receptors Ca2+ assay, DP; type: cell-based; settings: DP receptor
# T3 sequence (Q13258 1-359): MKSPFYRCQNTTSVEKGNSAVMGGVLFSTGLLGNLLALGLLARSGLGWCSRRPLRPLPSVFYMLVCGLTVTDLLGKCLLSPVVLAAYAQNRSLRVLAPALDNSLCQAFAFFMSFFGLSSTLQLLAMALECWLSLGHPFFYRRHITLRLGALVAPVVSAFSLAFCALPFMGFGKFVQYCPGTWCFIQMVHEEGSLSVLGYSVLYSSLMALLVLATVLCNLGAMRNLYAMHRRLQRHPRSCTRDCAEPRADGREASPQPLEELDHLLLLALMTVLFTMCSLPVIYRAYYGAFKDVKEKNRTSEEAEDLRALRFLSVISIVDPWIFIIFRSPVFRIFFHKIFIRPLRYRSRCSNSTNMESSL
# Description: as §1
# [7] = molecular target: T4, EP1 (Homo sapiens, UniProt P34995); assay: Other receptors Ca2+ assay, EP1; type: cell-based; settings: EP1 receptor
# T4 sequence (P34995 1-402): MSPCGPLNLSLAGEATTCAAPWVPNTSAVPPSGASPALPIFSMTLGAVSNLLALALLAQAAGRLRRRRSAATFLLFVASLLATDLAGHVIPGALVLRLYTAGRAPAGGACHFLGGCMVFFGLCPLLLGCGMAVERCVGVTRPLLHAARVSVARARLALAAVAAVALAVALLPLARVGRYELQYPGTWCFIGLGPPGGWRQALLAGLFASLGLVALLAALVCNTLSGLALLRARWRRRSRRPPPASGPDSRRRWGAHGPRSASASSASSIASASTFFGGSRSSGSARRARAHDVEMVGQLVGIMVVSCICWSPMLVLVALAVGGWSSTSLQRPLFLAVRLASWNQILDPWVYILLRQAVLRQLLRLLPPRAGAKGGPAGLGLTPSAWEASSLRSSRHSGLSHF
# Description: as §1
# [8] = molecular target: T5, EP3 (Homo sapiens, UniProt P43115); assay: Other receptors Ca2+ assay, EP3; type: cell-based; settings: EP3 receptor
# T5 sequence (P43115 1-390): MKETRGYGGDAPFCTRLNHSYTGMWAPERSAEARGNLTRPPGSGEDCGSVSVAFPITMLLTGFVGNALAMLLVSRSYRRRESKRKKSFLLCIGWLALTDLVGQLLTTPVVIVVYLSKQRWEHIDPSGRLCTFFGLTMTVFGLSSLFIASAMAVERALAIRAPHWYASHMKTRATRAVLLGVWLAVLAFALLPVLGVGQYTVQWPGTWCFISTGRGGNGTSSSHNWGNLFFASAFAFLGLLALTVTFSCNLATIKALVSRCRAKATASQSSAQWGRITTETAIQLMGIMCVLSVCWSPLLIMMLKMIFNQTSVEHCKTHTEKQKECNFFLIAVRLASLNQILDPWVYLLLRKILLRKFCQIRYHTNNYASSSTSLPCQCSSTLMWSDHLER
# Description: as §1
# [9] = molecular target: FP (Homo sapiens, UniProt P43088); assay: Other receptors Ca2+ assay, FP; type: cell-based; settings: FP receptor
# FP, sequence (P43088 whole entry): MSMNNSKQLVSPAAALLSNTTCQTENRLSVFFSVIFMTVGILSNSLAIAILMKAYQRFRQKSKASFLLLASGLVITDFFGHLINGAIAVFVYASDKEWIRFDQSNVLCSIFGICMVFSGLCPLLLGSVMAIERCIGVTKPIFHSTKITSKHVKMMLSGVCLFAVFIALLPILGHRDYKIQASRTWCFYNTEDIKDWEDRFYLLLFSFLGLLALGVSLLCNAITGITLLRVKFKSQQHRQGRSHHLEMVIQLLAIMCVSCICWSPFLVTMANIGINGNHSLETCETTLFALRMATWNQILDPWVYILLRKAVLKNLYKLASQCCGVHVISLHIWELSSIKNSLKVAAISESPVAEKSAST
# Description: as §1
# [10] = molecular target: T6, TP (Homo sapiens, UniProt P21731); assay: Other receptors Ca2+ assay, TP; type: cell-based; settings: TP receptor
# T6 sequence (P21731 1-343): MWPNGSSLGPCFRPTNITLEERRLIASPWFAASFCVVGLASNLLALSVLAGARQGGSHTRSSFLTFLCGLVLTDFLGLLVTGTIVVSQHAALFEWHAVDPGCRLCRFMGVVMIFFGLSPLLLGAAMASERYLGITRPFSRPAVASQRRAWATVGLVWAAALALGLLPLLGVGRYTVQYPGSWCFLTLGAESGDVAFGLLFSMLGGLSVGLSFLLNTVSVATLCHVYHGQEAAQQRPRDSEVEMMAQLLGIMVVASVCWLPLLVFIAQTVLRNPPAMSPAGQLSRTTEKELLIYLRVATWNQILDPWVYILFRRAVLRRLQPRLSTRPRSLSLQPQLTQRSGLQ
# Description: as §1
# [11] = molecular target: IP (Homo sapiens, UniProt P43119); assay: Other receptors Ca2+ assay, IP; type: cell-based; settings: IP receptor
# IP, sequence (P43119 whole entry): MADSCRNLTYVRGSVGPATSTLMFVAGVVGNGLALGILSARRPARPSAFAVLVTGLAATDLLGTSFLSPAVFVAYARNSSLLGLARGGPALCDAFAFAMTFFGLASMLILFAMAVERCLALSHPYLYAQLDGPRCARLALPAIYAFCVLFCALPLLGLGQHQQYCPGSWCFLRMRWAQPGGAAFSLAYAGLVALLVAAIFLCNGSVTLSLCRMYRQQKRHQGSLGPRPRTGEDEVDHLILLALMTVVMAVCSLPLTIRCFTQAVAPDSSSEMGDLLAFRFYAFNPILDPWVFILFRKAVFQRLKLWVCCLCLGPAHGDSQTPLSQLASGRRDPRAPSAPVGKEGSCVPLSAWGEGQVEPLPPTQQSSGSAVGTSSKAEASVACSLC
# Description: as §1
# [12] = tested on: DOG; assay: Dog intraocular pressure test; type: in vivo
# Description: (§2) U.S. Pat. No. 7,091,231, incorporated by reference herein, describes the methods used to obtain the in vivo test results presented in Table 2.
# [13] = tested on: DOG; assay: Dog ocular hyperemia; type: in vivo
# Description: as §2
# [14] = tested on: MONKEY; assay: Monkey intraocular pressure test; type: in vivo
# Description: as §2
# T1 sequence (P43116 whole entry): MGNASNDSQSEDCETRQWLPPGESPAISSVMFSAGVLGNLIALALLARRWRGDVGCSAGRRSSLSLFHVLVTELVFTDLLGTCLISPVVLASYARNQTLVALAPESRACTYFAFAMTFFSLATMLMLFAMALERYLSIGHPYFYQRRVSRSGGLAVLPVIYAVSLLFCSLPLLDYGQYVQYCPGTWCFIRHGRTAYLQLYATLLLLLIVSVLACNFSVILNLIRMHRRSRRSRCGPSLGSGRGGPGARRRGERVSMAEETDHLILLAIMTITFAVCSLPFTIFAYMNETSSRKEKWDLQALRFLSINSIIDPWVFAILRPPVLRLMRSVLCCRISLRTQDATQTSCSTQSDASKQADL
SMILES,EC50 [1] [nM],Ki [2] [nM],EC50 [3] [nM],EC50 [4] [nM],Ki [5] [nM],EC50 [6] [nM],EC50 [7] [nM],EC50 [8] [nM],EC50 [9] [nM],EC50 [10] [nM],EC50 [11] [nM],DOG Max. ΔIOP ([12]; Conc. 0.01 g/100 mL) [%],DOG Max. hyperemia ([13]; Conc. 0.01 g/100 mL),MONKEY Max. ΔIOP ([14]; Conc. 0.01 g/100 mL) [%],DOG Max. ΔIOP ([12]; Conc. .005% (g/100 mL)) [%],DOG Max. hyperemia ([13]; Conc. .005% (g/100 mL)),MONKEY Max. ΔIOP ([14]; Conc. .005% (g/100 mL)) [%]
"C=CCCCCCC[C@@H]1[C@@H](CCCc2ccc(C(=O)O)s2)[C@H](Cl)C[C@H]1O [Entry 12, 5-[3-((1R,2R,3R,5R)-5-Chloro-3-hydroxy-2-oct-7-enyl-cyclopentyl)-propyl]-thiophene-2-carboxylic acid]",0.2,3,7,6470,351,3210,883,4990,7570,10300,,,,,,,
"CCCCCCC[C@@H]1[C@@H](CCCc2ccc(C(=O)O)s2)[C@H](Cl)C[C@H]1O [Entry 3, 5-[3-((1R,2R,3R,5R)-5-Chloro-2-heptyl-3-hydroxy-cyclopentyl)-propyl]-thiophene-2-carboxylic acid]",2,3,67,7510,330,2250,3390,6660,≥ 10000,≥ 10000,> 10000,,,,,,
"CCCCCCCC[C@@H]1[C@@H](CCCc2ccc(C(=O)O)s2)[C@H](Cl)C[C@H]1O [Entry 4, 5-[3-((1R,2R,3R,5R)-5-Chloro-3-hydroxy-2-octyl-cyclopentyl)-propyl]-thiophene-2-carboxylic acid]",0.4,0.5,11,11400,395,6770,18200,9530,,,,40,1.3,31,,,
"CCCCCCCC[C@@H]1[C@@H](CCSc2nc(C(=O)O)cs2)[C@H](Cl)C[C@H]1O [Entry 6-8, 2-(2-((1R,2R,3R,5R)-5-chloro-3-hydroxy-2-octylcyclopentyl)ethylthio)thiazole-4-carboxylic acid]",,,,,,,,,,,,,,,44,2.4,56
